# Experimental data taken from paper PMC12310023 (PLOS Neglected Tropical Diseases, 2025).
# Where “and” joins values, the source holds several entries; their conditions need not be identical. Equal entries are not always repeated.
# Experiments:
# [1] = test system: C. parvum U AZ Laboratory isolate; assay: microbe, parasite or virus in culture; format: cell-based, Cryptosporidium parvum
# [2] = test system: C. parvum Bunch Grass Farms isolate; assay: Calibr high-content imaging Cryptosporidium panel; format: cell-based, Cryptosporidium parvum; conditions: Calibr Crypto Panel 2
# [3] = test system: C. parvum Zambriski Laboratory isolate; assay: Calibr high-content imaging Cryptosporidium panel; format: cell-based, Cryptosporidium parvum; conditions: Calibr Crypto Panel 2
# C. hominis TU502 isolate = assay: Calibr high-content imaging Cryptosporidium panel; format: cell-based, Cryptosporidium hominis
# HEK293T = assay: 72H HEK293T Cytotoxicity; format: cell-based
# HCT-8 cells = assay: HCT-8 host cell count (Calibr); conditions: read-out: HCT-8 Cell Count CC50; host cells infected with Sterling oocysts
# [4] = test system: NLuc-expressing C. parvum; assay: NLuc C. parvum IFNγ-KO mouse infection model, oocyst shedding; format: in vivo
# 5-HT2B = biological target: T1, 5-HT2B (Homo sapiens, UniProt P41595); assay: Cerep binding assay; conditions: agonist radioligand, mean, read-out: % inhibition of control specific binding
# T1 construct: Cerep (Eurofins, France)
# NLuc C. parvum = test system: NLuc C. parvum; design: method as in PMID 30830766; conditions: cited from earlier work
# C. parvum = conditions: bovine, in vivo
# [5] = female, Balb/c, mouse, in vivo
# [6] = dog, in vivo
# [7] = test system: NLuc-expressing C. parvum; design: method as in PMID 30830766; conditions: 8 mg/kg QD x 5 PO, 20 days p.i.; cited from earlier work
# [8] = cited from earlier work
# [9] = test system: micronuclei in interphase cells; assay: In vitro micronucleus (IVMN) test
# [10] = test system: A-375, Hs294T, MEWO, and Colo678 carcinoma cell lines
# [11] = Mouse plasma, brain and GI exposure PK, Balb/c, 30 mg/kg PO; conditions: Brains, 0.5 hr, individual samples
# T1 sequence (P41595 whole entry): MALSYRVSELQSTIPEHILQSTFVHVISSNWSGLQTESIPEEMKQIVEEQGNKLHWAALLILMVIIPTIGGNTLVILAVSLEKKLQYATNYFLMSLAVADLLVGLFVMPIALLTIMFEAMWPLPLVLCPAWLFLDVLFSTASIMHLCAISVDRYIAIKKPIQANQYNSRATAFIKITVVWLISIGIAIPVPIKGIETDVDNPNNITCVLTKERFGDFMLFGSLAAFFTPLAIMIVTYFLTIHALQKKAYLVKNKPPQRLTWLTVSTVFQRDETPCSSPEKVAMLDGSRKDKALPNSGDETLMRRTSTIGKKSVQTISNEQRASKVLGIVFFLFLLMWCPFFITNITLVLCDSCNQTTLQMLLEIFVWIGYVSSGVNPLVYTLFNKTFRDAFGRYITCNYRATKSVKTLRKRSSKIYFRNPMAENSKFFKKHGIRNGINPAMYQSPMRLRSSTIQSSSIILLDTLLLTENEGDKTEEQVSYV
structure (smiles),measurement,setting,value
CCOc1ccc2cc(-c3nn(CC4CCN(C)CC4)c4ncnc(N)c34)ccc2c1 [BKI-1294],EC50,"[1]; Calibr Crypto Panel 2, 2018-06-18, read-out: Sterling Lab C. parvum Spot Count EC50",0.468 µM
same,EC90,"[1]; Calibr Crypto Panel 2, read-out: Sterling Lab C. parvum Spot Count EC90",8.29 µM
same,EC50,[2]; read-out: Bunch Grass Farm C. parvum Spot Count EC50,2.02 µM
same,EC90,[2]; read-out: Bunch Grass Farm C. parvum Spot Count EC90,5.44 µM
same,EC50,[3]; read-out: Wild C. parvum Spot Count EC50,0.337 µM
same,EC90,[3]; read-out: Wild C. parvum Spot Count EC90,27.3 µM
same,EC50,"C. hominis TU502 isolate; Calibr Crypto Panel 2, 2018-07-02, read-out: C. hominis Spot Count EC50",2.82 µM
same,EC90,"C. hominis TU502 isolate; Calibr Crypto Panel 2, read-out: C. hominis Spot Count EC90",14.8 µM
same,CC50,HEK293T,22.2 µM
same,CC50,HCT-8 cells,> 25 µM
CC(C)(CO)Cn1nc(-c2ccc3cc(OC4CC4)ccc3c2)c(C(N)=O)c1N [BKI-1708],efficacy,[4]; 8 mg/kg QD x 3,failed to recapitulate efficacy
same,log reduction in oocyst shedding,"[4]; 15 mg/kg x 2 days, day 20 p.i.",2.1 log
same,log reduction vs peak infection levels of untreated control,"[4]; 60, 30 and 15 mg/kg QD x 3, up to 20 days p.i.",> 4 log
same,day p.i. oocyst shedding reached LoD,[4]; BKI-1708 15 mg/kg QD x 3 PO,≤ 13 days
same,day p.i. oocyst shedding reached LoD,[4]; BKI-1708 30 mg/kg QD x 3 PO,≤ 13 days
same,day p.i. oocyst shedding below LoD,[4]; BKI-1708 60 mg/kg QD x 3 PO,≤ 10 days
same,log reduction in oocyst shedding,"[4]; single 15 mg/kg dose, 13 days p.i.",1.4 log
same,log reduction in oocyst shedding,"[4]; single 15 mg/kg dose, 20 days p.i.",1.7 log
same,log reduction in oocyst shedding,"[4]; single 60 mg/kg dose, 13 days p.i.",3.5 log
same,inhibition at 10 µM,5-HT2B,24.3%
same,EC50,NLuc C. parvum,0.4 µM
same,Clinical scores,C. parvum,10.5
same,"Weights, %∆",C. parvum,6.329% and 8.511% and 5.263%
same,"Weights, %∆, mean",C. parvum,6.701%
same,postnatal mortality (%),[5],0%
same,"plasma level without appreciable effect on MAP, HR, contractility, SVR, CO, QT, QRS, PR",[6],95 µM
same,log reduction in oocyst shedding over untreated controls,[7],> 3 log
same,maximum tolerated single dose,[8],400 mg/kg
same,IVMN test result,[9],no change in the frequency of micronucleated cells
CC(=O)Nc1cccc(-n2c(=O)n(C3CC3)c(=O)c3c(Nc4ccc(I)cc4F)n(C)c(=O)c(C)c32)c1 [Trametinib],inhibitory concentration in MEK1 proliferation-dependent cell lines,[10],7 to 60 nM
CC1(C)Cn2nc(-c3ccc4cc(OC5CC5)ccc4c3)c(C(N)=O)c2NC1O (stereo not shown) [compound 1862],RLU Raw,"[4]; 8 mg/kg x 3 d, Day 6",1384352 RLU
same,RLU Raw,"[4]; 8 mg/kg x 3 d, Day 7",821824 RLU
same,RLU Raw,"[4]; 8 mg/kg x 3 d, Day 8",1485152 RLU
same,RLU Raw,"[4]; 8 mg/kg x 3 d, Day 9",162144 RLU
same,RLU Raw,"[4]; 8 mg/kg x 3 d, Day 10",41552 RLU
same,RLU Raw,"[4]; 8 mg/kg x 3 d, Day 13",6176 RLU
same,RLU Raw,"[4]; 8 mg/kg x 3 d, Day 15",4992 RLU
same,RLU Raw,"[4]; 8 mg/kg x 3 d, Day 17",608 RLU
same,RLU Raw,"[4]; 8 mg/kg x 3 d, Day 20",1296 RLU
same,RLU standardized by fecal weight (Normalized),"[4]; 8 mg/kg x 3 d, day 6 p.i.",226943 RLU
same,RLU standardized by fecal weight (Normalized),"[4]; 8 mg/kg x 3 d, day 7 p.i.",75397 RLU
same,RLU standardized by fecal weight (Normalized),"[4]; 8 mg/kg x 3 d, day 8 p.i.",146320 RLU
same,RLU standardized by fecal weight (Normalized),"[4]; 8 mg/kg x 3 d, day 9 p.i.",15516 RLU
same,RLU standardized by fecal weight (Normalized),"[4]; 8 mg/kg x 3 d, day 10 p.i.",4240 RLU
same,RLU standardized by fecal weight (Normalized),"[4]; 8 mg/kg x 3 d, day 13 p.i.",468 RLU
same,RLU standardized by fecal weight (Normalized),"[4]; 8 mg/kg x 3 d, day 15 p.i.",409 RLU
same,RLU standardized by fecal weight (Normalized),"[4]; 8 mg/kg x 3 d, day 17 p.i.",61 RLU
same,RLU standardized by fecal weight (Normalized),"[4]; 8 mg/kg x 3 d, day 20 p.i.",214 RLU
same,RLU Raw,"[4]; 15 mg/kg x 3 d, Day 6",1490624 RLU
same,RLU Raw,"[4]; 15 mg/kg x 3 d, Day 7",876560 RLU
same,RLU Raw,"[4]; 15 mg/kg x 3 d, Day 8",670544 RLU
same,RLU Raw,"[4]; 15 mg/kg x 3 d, Day 9",9856 RLU
same,RLU Raw,"[4]; 15 mg/kg x 3 d, Day 10",2928 RLU
same,RLU Raw,"[4]; 15 mg/kg x 3 d, Day 13",512 RLU
same,RLU Raw,"[4]; 15 mg/kg x 3 d, Day 15",400 RLU
same,RLU Raw,"[4]; 15 mg/kg x 3 d, Day 17",288 RLU
same,RLU Raw,"[4]; 15 mg/kg x 3 d, Day 20",192 RLU
same,RLU standardized by fecal weight (Normalized),"[4]; 15 mg/kg x 3 d, day 6 p.i.",200084 RLU
same,RLU standardized by fecal weight (Normalized),"[4]; 15 mg/kg x 3 d, day 7 p.i.",110259 RLU
same,RLU standardized by fecal weight (Normalized),"[4]; 15 mg/kg x 3 d, day 8 p.i.",111757 RLU
same,RLU standardized by fecal weight (Normalized),"[4]; 15 mg/kg x 3 d, day 9 p.i.",1398 RLU
same,RLU standardized by fecal weight (Normalized),"[4]; 15 mg/kg x 3 d, day 10 p.i.",284 RLU
same,RLU standardized by fecal weight (Normalized),"[4]; 15 mg/kg x 3 d, day 13 p.i.",37 RLU
same,RLU standardized by fecal weight (Normalized),"[4]; 15 mg/kg x 3 d, day 15 p.i.",29 RLU
same,RLU standardized by fecal weight (Normalized),"[4]; 15 mg/kg x 3 d, day 17 p.i.",32 RLU
same,RLU standardized by fecal weight (Normalized),"[4]; 15 mg/kg x 3 d, day 20 p.i.",66 RLU
same,RLU Raw,"[4]; 30 mg/kg x 3 d, Day 6",1093968 RLU
same,RLU Raw,"[4]; 30 mg/kg x 3 d, Day 7",650000 RLU
same,RLU Raw,"[4]; 30 mg/kg x 3 d, Day 8",37104 RLU
same,RLU Raw,"[4]; 30 mg/kg x 3 d, Day 9",1536 RLU
same,RLU Raw,"[4]; 30 mg/kg x 3 d, Day 10",336 RLU
same,RLU Raw,"[4]; 30 mg/kg x 3 d, Day 13",208 RLU
same,RLU Raw,"[4]; 30 mg/kg x 3 d, Day 15",240 RLU
same,RLU Raw,"[4]; 30 mg/kg x 3 d, Day 17",2640 RLU
same,RLU Raw,"[4]; 30 mg/kg x 3 d, Day 20",192 RLU
same,RLU standardized by fecal weight (Normalized),"[4]; 30 mg/kg x 3 d, day 6 p.i.",163279 RLU
same,RLU standardized by fecal weight (Normalized),"[4]; 30 mg/kg x 3 d, day 7 p.i.",191176 RLU
same,RLU standardized by fecal weight (Normalized),"[4]; 30 mg/kg x 3 d, day 8 p.i.",11969 RLU
same,RLU standardized by fecal weight (Normalized),"[4]; 30 mg/kg x 3 d, day 9 p.i.",290 RLU
same,RLU standardized by fecal weight (Normalized),"[4]; 30 mg/kg x 3 d, day 10 p.i.",51 RLU
same,RLU standardized by fecal weight (Normalized),"[4]; 30 mg/kg x 3 d, day 13 p.i.",29 RLU
same,RLU standardized by fecal weight (Normalized),"[4]; 30 mg/kg x 3 d, day 15 p.i.",21 RLU
same,RLU standardized by fecal weight (Normalized),"[4]; 30 mg/kg x 3 d, day 17 p.i.",290 RLU
same,RLU standardized by fecal weight (Normalized),"[4]; 30 mg/kg x 3 d, day 20 p.i.",23 RLU
same,Brains concentration,[11],0.0641 µM
